Values quoted from earlier work as cited in US8633194B2, “Pharmaceutical composition of piperazine derivatives” (UCB Pharma, S.A., priority 2004, dated 2014).

Target: histamine H1-receptor (Homo sapiens, UniProt P35367)
Conditions: in vitro

Sequence of histamine H1-receptor (P35367 whole entry, species assumed): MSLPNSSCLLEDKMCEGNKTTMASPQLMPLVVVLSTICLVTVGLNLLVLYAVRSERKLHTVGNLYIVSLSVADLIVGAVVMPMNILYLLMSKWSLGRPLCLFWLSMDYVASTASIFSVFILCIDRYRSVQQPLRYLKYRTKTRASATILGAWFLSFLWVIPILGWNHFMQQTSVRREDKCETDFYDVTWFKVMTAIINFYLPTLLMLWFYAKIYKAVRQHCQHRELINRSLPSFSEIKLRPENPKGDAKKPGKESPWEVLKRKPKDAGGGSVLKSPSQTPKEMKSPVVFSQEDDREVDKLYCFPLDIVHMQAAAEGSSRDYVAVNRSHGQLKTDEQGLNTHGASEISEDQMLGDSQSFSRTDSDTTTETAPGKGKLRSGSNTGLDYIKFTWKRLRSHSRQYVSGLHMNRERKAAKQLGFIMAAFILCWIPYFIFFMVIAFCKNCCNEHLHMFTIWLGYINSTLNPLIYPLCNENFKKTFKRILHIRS

Affinity for H1-receptors: high affinity
Selectivity for H1-receptors: selectivity
SMILES: O=C(O)COCCN1CCN(C(c2ccc(F)cc2)c2ccc(F)cc2)CC1 [Efletirizine, 2-[2-[4-[bis(4-fluorophenyl)methyl]-1-piperazinyl]ethoxy]acetic acid]
